What was measured:
IRAK4 [1] = target: T1, IRAK4 (Homo sapiens, UniProt Q9NWZ3); experiment: Hibit fluorescence detection of proteolysis (IRAK4-HiBiT in HEK293T cells); assay type: cell-based; set-up: host or cells: HEK293T (ATCC); details: for Dmax: HEK-293T; for DC50: IRAK4-HiBiT, HEK293T cells, 24 h
T1 sequence (Q9NWZ3 1-460): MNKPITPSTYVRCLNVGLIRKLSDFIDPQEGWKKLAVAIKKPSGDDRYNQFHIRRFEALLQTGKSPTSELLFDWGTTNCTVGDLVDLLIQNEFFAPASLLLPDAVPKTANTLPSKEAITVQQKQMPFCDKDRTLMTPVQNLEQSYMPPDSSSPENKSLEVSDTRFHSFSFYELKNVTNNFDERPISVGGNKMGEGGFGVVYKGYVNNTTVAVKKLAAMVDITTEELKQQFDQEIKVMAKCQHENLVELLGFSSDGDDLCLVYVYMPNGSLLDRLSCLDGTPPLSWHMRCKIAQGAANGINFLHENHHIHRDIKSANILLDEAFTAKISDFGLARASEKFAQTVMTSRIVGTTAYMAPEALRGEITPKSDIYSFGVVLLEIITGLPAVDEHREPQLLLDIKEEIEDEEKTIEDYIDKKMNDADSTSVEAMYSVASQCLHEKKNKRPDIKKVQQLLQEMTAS
Outline: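 Degradation read-out: luminescence from lytic HiBiT detection (15 min, room temperature) after 24 h compound exposure (37 °C, 5% CO2) of HEK293T cells transiently expressing IRAK4 fused to a HiBiT tag. Data fitted to a bell-shaped four-parameter model giving two EC50 values.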

IRAK4 [2] = target: T1, IRAK4; experiment: WB detection of proteolysis (Western Blot, THP-1 cells); assay type: cell-based
Description: The degradation level of IRAK4 in THP-1 cells was detected by Western Blot technology. […] 1000X gradient dilution stock of the compound was prepared, with the highest concentration set at 300 µM. The dilution was carried out using DMSO in a 1:3 dilution factor, yielding a total of 9 concentrations. 1000X gradient dilutions of the compound were added to a 12-well plate, with 1 µL per well. Incubation was performed under conditions of 37°C and 5% CO2 for 24 h, and the cells were collected into 2 mL of centrifuge tubes and centrifuged at 5000 rpm for 5 min, and the supernatant was removed. 100 µL of RIPA lysis buffer (Beyotime, P0013C) was added and mixed uniformly, then the cells were lysed on ice for 10 min, centrifuged at 4°C at 14000 rpm for 10 min, and the supernatant was collected. Protein content was determined with BCA (Solarbio, PC0020-10*50T). 75 µL of the supernatant was taken, and 25 µL of NuPAGE LDS Sample Buffer (4X) (Thermo B0007) was added to each tube (5% β-mercaptoethanol was added before use) to prepare samples, and the samples were boiled in a metal bath at 100°C for 5 min. […] 1x NuPAGE™ MOPS SDS electrophoresis buffer (20X) (Invitrogen, NP0001) was prepared, and the electrophoresis instrument was set to a constant current of 300 mA for 100 min, and the protein was transferred to a PVDF membrane (Millipore, IPVH00010). […] The membrane was washed three times with 1x TBST (Elabscience E-BC-R335) the next day, each time for 5 min. […] The membrane was washed three times with TBST, each time for 5 min. The Odyssey imaging system Li-cor Odyssey CLx was used to detect signals and analyze data. GraphPad (Prism 9.3) software was used to perform analysis for data, and non-linear fitting (non-liner inhibitor (Bell-shaped)) and four parameters (4 parameter) were used, and the parameters was as follows: Span1 = Plateau1−Dip [formula] Span2 = Plateau2−Dip [formula] Section1 = Span1/(1+10^(∧)((LogEC50_1−X)*nH1)) [formula] Section2 = Span2/(1+10^(∧)((X−LogEC50_2)*nH2)) [formula]
The equation was as follows: Y=Dip+Section1+Section2.

[3] = Western Blot, THP-1 cells, 24 h, read-out: DC50
[4] = Western Blot, THP-1 cells, 24 h, read-out: Dmax

| Structure (SMILES) | Dmax (IRAK4 [1]) [%] | DC50 (IRAK4 [1]) [nM] | DC50 (IRAK4 [2]; [3]) [nM] | Dmax (IRAK4 [2]; [4]) [%] | Dmax (IRAK4 [2]; THP-1) [%] | DC50 (IRAK4 [2]; Western Blot, THP-1 cells, 24 h) [nM] | DC50 (IRAK4 [1]; read-out: DC50) [nM] |
| --- | --- | --- | --- | --- | --- | --- | --- |
| Cn1c(=O)n(C2CCC(=O)NC2=O)c2cccc(N3CCC4(CCN(C[C@H]5CC[C@H](n6cc(-n7cc(-c8cnn9ccc(N%10CCC[C@H](N)C%10)nc89)nn7)c(C(F)F)n6)CC5)CC4)CC3)c21 (some centres unmarked) [Example 120] | > 80 | 0.5 to 1 | < 10 | > 70 | – | – | – |
| Cn1c(=O)n(C2CCC(=O)NC2=O)c2cccc(N[C@H]3CC[C@H](N(C)C[C@H]4CC[C@H](n5cc(-n6cc(-c7cnn8ccc(N9CCOCC9)nc78)nn6)c(C(F)F)n5)CC4)CC3)c21 (stereo partly drawn) [Example 55, 3-(4-(((1R,4r)-4-((((1r,4R)-4-(3-(difluoromethyl)-4-(4-(5-morpholinopyrazolo[1,5-a]pyrimidin-3-yl)-1H-1,2,3-triazol-1-yl)-1H-pyrazol-1-yl)cyclohexyl)methyl)(methyl)amino)cyclohexyl)amino)-3-methyl-2-oxo-2,3-dihydro-1H-benzo[d]imidazol-1-yl)piperidine-2,6-dione] | > 80 | < 0.5 | – | – | < 60 | < 10 | – |
| C[C@H]1CN(c2ccn3ncc(-c4cn(-c5cn([C@H]6CC[C@H](CN7CCC(N8CCN(c9cccc%10c9n(C)c(=O)n%10C9CCC(=O)NC9=O)CC8)CC7)CC6)nc5C(F)F)nn4)c3n2)CCO1 (some centres unmarked) [Compound 208] | > 80 | – | < 10 | > 70 | – | – | < 0.5 |
| Cn1c(=O)n(C2CCC(=O)NC2=O)c2cccc(N3CCC4(CCN(C[C@H]5CC[C@H](n6cc(-n7cc(-c8cnn9ccc(N%10CCC(C)(O)CC%10)nc89)nn7)c(C(F)F)n6)CC5)C4)CC3)c21 (some centres unmarked) [Compound 238] | > 80 | – | 10 to 30 | 60 to 70 | – | – | < 0.5 |
| Cn1c(=O)n(C2CCC(=O)NC2=O)c2cccc(N3CCC4(CCN(C[C@H]5CC[C@H](n6cc(-n7cc(-c8cnn9ccc(NCCC(C)(C)O)nc89)nn7)c(C(F)F)n6)CC5)CC4)CC3)c21 (some centres unmarked) [Example 126] | > 80 | < 0.5 | < 10 | > 70 | – | – | – |
| Cn1c(=O)n(C2CCC(=O)NC2=O)c2cccc(N3CC4(CCN(C[C@H]5CC[C@H](n6cc(-n7cc(-c8ccc9cc(C(N)=O)cnn89)nn7)c(C(F)F)n6)CC5)CC4)C3)c21 (some centres unmarked) [Example 35] | > 80 | < 0.5 | < 10 | 60 to 70 | – | – | – |
| Cn1c(=O)n(C2CCC(=O)NC2=O)c2cccc(N3CCC4(CCN(C[C@H]5CC[C@H](n6cc(-n7cc(-c8cnn9ccc(NCC%10CC%10)nc89)nn7)c(C(F)F)n6)CC5)C4)CC3)c21 (some centres unmarked) [Example 113] | > 80 | < 0.5 | > 30 | 60 to 70 | – | – | – |
| Cn1c(=O)n(C2CCC(=O)NC2=O)c2cccc(N3CCC(N4CCN(C[C@H]5CC[C@H](n6cc(-n7cc(-c8cnn9ccc(N%10CCC(O)CC%10)nc89)nn7)c(C(F)F)n6)CC5)CC4)CC3)c21 (some centres unmarked) [Example 135] | > 80 | < 0.5 | < 10 | > 70 | – | – | – |
| Cn1c(=O)n(C2CCC(=O)NC2=O)c2cccc(N3CCC(N4CCN(C[C@H]5CC[C@H](n6cc(-n7cc(-n8ccc9cc(C(N)=O)cnc98)nn7)c(C(F)F)n6)CC5)CC4)CC3)c21 (some centres unmarked) [Example 98, 1-(1-(3-(difluoromethyl)-1-((1r,4r)-4-((4-(1-(2-(2,6-dioxopiperidin-3-yl)-3-methyl-2-oxo-3,3-dihydro-1H-benzo[d]imidazol-4-yl)piperidin-4-yl)piperazin-1-yl)methyl)cyclohexyl)-1H-pyrazol-4-yl)-1H-1-1,2,3-triazole)-1H-pyrrolo[2,3-b]pyridine-5-carboxamide] | > 80 | < 0.5 | < 10 | > 70 | – | – | – |
| Cn1c(=O)n(C2CCC(=O)NC2=O)c2cccc(N3CCC4(CCN(C[C@H]5CC[C@H](n6cc(-n7cc(-c8cnn9ccc(N%10CCC[C@H](N)C%10)nc89)nn7)c(C(F)F)n6)CC5)CC4)C3)c21 (some centres unmarked) [Example 116] | > 80 | 0.5 to 1 | 10 to 30 | 60 to 70 | – | – | – |
| Cn1c(=O)n(C2CCC(=O)NC2=O)c2cccc(N[C@H]3CC[C@H](N(C)C[C@H]4CC[C@H](n5cc(-n6cc(-c7ccc8cc(C(N)=O)cnn78)nn6)c(C(F)F)n5)CC4)CC3)c21 (stereo partly drawn) [Example 61, 7-(1-(3-(difluoromethyl)-1-((1R,4r)-4-((((1r,4R)-4-((1-(2,6-dioxopiperidin-3-yl)-3-methyl-2-oxo-2,3-dihydro-1H-benzo[d]imidazol-4-yl)amino)cyclohexyl)(methyl)amino)methyl)cyclohexyl)-1H-pyrazol-4-yl)-1H - 1,2,3-triazol-4-yl)pyrrolo[1,2-b]pyridazine-3-carboxamide] | > 80 | < 0.5 | < 10 | 60 to 70 | – | – | – |
| Cn1c(=O)n(C2CCC(=O)NC2=O)c2cccc(N3CCN(C[C@H]4CC[C@H](n5cc(-n6cc(-c7cnn8ccc(N9CCC(O)CC9)nc78)nn6)c(C(F)F)n5)CC4)CC3)c21 (some centres unmarked) [Example 140] | > 80 | < 0.5 | 10 to 30 | > 70 | – | – | – |
| Cn1c(=O)n(C2CCC(=O)NC2=O)c2cccc(CN3CC4(CCC(CN[C@H]5CC[C@H](n6cc(-n7cc(-c8ccc9cc(C(N)=O)cnn89)nn7)c(C(F)F)n6)CC5)CC4)C3)c21 (some centres unmarked) [Example 60] | > 80 | 1 to 5 | 10 to 30 | > 70 | – | – | – |
| C[C@H]1CN(c2ccn3ncc(-c4cn(-c5cn([C@H]6CC[C@H](CN7CCC8(CC7)CN(c7cccc9c7n(C)c(=O)n9C7CCC(=O)NC7=O)C8)CC6)nc5C(F)F)nn4)c3n2)CCO1 (some centres unmarked) [Compound 178] | > 80 | – | < 10 | > 70 | – | – | < 0.5 |
| Cn1c(=O)n(C2CCC(=O)NC2=O)c2cccc(N3CCC4(CCN(C[C@H]5CC[C@H](n6cc(-n7cc(-n8ccc9cc(C(N)=O)cnc98)nn7)c(C(F)F)n6)CC5)CC4)CC3)c21 (some centres unmarked) [Example 99] | > 80 | < 0.5 | 10 to 30 | < 60 | – | – | – |
| Cn1c(=O)n(C2CCC(=O)NC2=O)c2cccc(N3CCC4(CCN(C[C@H]5CC[C@H](n6cc(-n7cc(-c8cnn9ccc(N%10CCC(C)(O)CC%10)nc89)nn7)c(C(F)F)n6)CC5)CC4)C3)c21 (some centres unmarked) [Example 123] | > 80 | < 0.5 | < 10 | < 60 | – | – | – |
| Cn1c(=O)n(C2CCC(=O)NC2=O)c2cccc(N[C@H]3CC[C@H](N(C)C[C@H]4CC[C@H](n5cc(-n6cc(-n7ccc8cc(C(N)=O)cnc87)nn6)c(C(F)F)n5)CC4)CC3)c21 (some centres unmarked) [Example 102] | > 80 | < 0.5 | 10 to 30 | < 60 | – | – | – |
| Cn1c(=O)n(C2CCC(=O)NC2=O)c2cccc(N3CCC4(CCN(C[C@H]5CC[C@H](n6cc(-n7cc(-c8cnn9ccc(N%10CCC[C@H](O)C%10)nc89)nn7)c(C(F)F)n6)CC5)C4)CC3)c21 (some centres unmarked) [Example 145] | > 80 | < 0.5 | < 10 | > 70 | – | – | – |
| Cn1c(=O)n(C2CCC(=O)NC2=O)c2cccc(N[C@H]3CC[C@@H](N(C)C[C@H]4CC[C@H](n5cc(-n6cc(-c7cnn8ccc(N9CCOCC9)nc78)nn6)c(C(F)F)n5)CC4)CC3)c21 (some centres unmarked) [Example 54] | > 80 | < 0.5 | < 10 | 60 to 70 | – | – | – |
| Cn1c(=O)n(C2CCC(=O)NC2=O)c2cccc(N3CCC4(CCN(C[C@H]5CC[C@H](n6cc(-n7cc(-c8cnn9ccc(N[C@H]%10CCCC[C@H]%10O)nc89)nn7)c(C(F)F)n6)CC5)C4)CC3)c21 (some centres unmarked) [Example 147] | > 80 | < 0.5 | 10 to 30 | > 70 | – | – | – |
